Source: patent US9802960B2 (MILLENNIUM PHARMACEUTICALS, INC., priority 2014, dated 2017)

Biological target: Human VPS34 (Homo sapiens (Human), UniProt Q8NEB9)
Assay: Human VPS34 enzyme assay (Adapta TR-FRET)
Format: biochemical
Conditions: for inhibition at 1.11 µM: compound concentration 1.11 μM, read-out: Percent Inhibition

Chain of Human VPS34 (Q8NEB9 whole entry): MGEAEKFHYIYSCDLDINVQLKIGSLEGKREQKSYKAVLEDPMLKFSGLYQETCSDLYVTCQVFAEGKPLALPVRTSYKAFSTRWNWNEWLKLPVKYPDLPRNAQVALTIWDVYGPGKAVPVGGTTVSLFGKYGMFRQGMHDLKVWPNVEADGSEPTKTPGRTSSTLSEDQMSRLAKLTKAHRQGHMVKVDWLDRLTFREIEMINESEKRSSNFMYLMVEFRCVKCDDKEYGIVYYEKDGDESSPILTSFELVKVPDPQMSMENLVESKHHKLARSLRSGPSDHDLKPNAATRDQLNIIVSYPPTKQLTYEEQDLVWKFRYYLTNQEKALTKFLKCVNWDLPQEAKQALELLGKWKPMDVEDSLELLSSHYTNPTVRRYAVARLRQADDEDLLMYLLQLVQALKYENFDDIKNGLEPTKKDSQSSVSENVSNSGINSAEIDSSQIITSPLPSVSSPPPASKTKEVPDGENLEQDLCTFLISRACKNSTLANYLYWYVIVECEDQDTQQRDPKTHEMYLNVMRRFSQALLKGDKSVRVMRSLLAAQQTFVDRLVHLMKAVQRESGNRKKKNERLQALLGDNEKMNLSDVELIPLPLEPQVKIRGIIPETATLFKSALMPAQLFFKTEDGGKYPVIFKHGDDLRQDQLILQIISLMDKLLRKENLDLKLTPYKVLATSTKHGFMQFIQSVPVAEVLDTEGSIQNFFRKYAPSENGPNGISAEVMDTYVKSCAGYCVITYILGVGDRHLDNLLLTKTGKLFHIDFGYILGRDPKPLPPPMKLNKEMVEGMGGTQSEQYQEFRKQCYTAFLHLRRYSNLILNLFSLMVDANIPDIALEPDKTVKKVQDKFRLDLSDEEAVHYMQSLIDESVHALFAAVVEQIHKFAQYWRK

inhibition at 1.11 µM | IC50 (IC50 range class) | Compound
> 99% |  | CC(=O)Nc1cc(-c2cnc3c(c2)N(CC2CC2)S(=O)(=O)N3)ccn1 [Compound I-29, N-{4-[1-(cyclopropylmethyl)-2,2-dioxido-1,3-dihydro[1,2,5]thiadiazolo[3,4-b]pyridin-6-yl]pyridin-2-yl}acetamide]
> 99% |  | CC(=O)Nc1cc(-c2cnc(C)c(NS(=O)(=O)c3ccc(Cl)cc3Cl)c2)ccn1 [Compound I-30, N-(5-{[(2,4-dichlorophenyl)sulfonyl]amino}-6-methyl-3,4′-bipyridin-2′-yl)acetamide]
> 99% |  | CC(=O)Nc1cc(-c2cnc(C)c(NS(=O)(=O)N(C)C)c2)ccn1 [Compound I-32, N-{5-[(dimethylsulfamoyl)amino]-6-methyl-3,4′-bipyridin-2′-yl}acetamide]
> 99% |  | CC(=O)Nc1cc(-c2cnc3ccn(S(C)(=O)=O)c3c2)ccn1 [Compound I-33, N-{4-[1-(methylsulfonyl)-1H-pyrrolo[3,2-b]pyridin-6-yl]pyridin-2-yl}acetamide]
> 99% |  | COC(=O)Nc1cc(-c2cnc(N)c(S(=O)(=O)C(C)C)c2)ccn1 [Compound I-34, methyl[6-amino-5-(isopropylsulfonyl)-3,4′-bipyridin-2′-yl]carbamate]
> 99% |  | CC(=O)Nc1cc(-c2cnc(N)c(NCC3CC3)c2)ccn1 [Compound I-35, N-{6-amino-5-[(cyclopropylmethyl)amino]-3,4′-bipyridin-2′-yl}acetamide]
> 99% |  | COC(=O)Nc1cc(-c2cnc(N)c(S(=O)(=O)N3CCCC3)c2)ccn1 [Compound I-36, methyl[6-amino-5-(pyrrolidin-1-ylsulfonyl)-3,4′-bipyridin-2′-yl]carbamate]
> 99% |  | CC(=O)Nc1cc(-c2cnc(N)c(S(=O)(=O)N(C)c3ccccc3)c2)ccn1 [Compound I-37, N-{6-amino-5-[methyl(phenyl)sulfamoyl]-3,4′-bipyridin-2′-yl}acetamide]
> 99% |  | COC(=O)Nc1cc(-c2cnc3[nH]ncc3c2)ccn1 [Compound I-38, Methyl [4-(1H-pyrazolo[3,4-b]pyridin-5-yl)pyridin-2-yl]carbamate]
> 99% |  | COc1ncc(-c2ccnc(NC(C)=O)c2)cc1S(=O)(=O)Nc1ccccc1 [Compound I-39, N-[6-methoxy-5-(phenylsulfamoyl)-3,4′-bipyridin-2′-yl]acetamide]
> 99% |  | CC(=O)Nc1cc(-c2cnc3[nH]cc(S(=O)(=O)N(C)C)c3c2)ccn1 [Compound I-40, N-{4-[3-(dimethylsulfamoyl)-1H-pyrrolo[2,3-b]pyridin-5-yl]pyridin-2-yl}acetamide]
> 99% |  | CC(=O)Nc1cc(-c2cnc(C)c(NS(=O)(=O)c3ccc(F)cc3F)c2)ccn1 [Compound I-41, N-(5-{[(2,4-difluorophenyl)sulfonyl]amino}-6-methyl-3,4′-bipyridin-2′-yl)acetamide]
> 99% |  | COC(=O)Nc1cc(-c2cnc3ccn(CC4CC4)c3c2)ccn1 [Compound I-42, Methyl {4-[1-(cyclopropylmethyl)-1H-pyrrolo[3,2-b]pyridin-6-yl]pyridin-2-yl}carbamate]
> 99% |  | CC(=O)Nc1cc(-c2cnc(N)c(S(=O)(=O)Nc3ccccc3)c2)ccn1 [Compound I-43, N-[6-amino-5-(phenylsulfamoyl)-3,4′-bipyridin-2′-yl]acetamide]
> 99% |  | CCc1ccc(S(=O)(=O)Nc2cc(-c3ccnc(NC(C)=O)c3)cnc2C)cc1 [Compound I-44, N-(5-{[(4-ethylphenyl)sulfonyl]amino}-6-methyl-3,4′-bipyridin-2′-yl)acetamide]
> 99% |  | CC(=O)Nc1cc(-c2cnc(C)c(NS(=O)(=O)c3cccnc3)c2)ccn1 [Compound I-45, N-{6-methyl-5-[(pyridin-3-ylsulfonyl)amino]-3,4′-bipyridin-2′-yl}acetamide]
> 99% |  | CC(=O)Nc1cc(-c2cnc(C)c(N(C)S(=O)(=O)c3ccccc3)c2)ccn1 [Compound I-46, N-{6-methyl-5-[methyl(phenylsulfonyl)amino]-3,4′-bipyridin-2′-yl}acetamide]
> 99% |  | CC(=O)Nc1cc(-c2cncc(S(=O)(=O)N3CCCC3)c2)ccn1 [Compound I-47, N-[5-(pyrrolidin-1-ylsulfonyl)-3,4′-bipyridin-2′-yl]acetamide]
> 99% |  | CC(=O)Nc1cc(-c2cncc(C(=O)N(C)C)c2)ccn1 [Compound I-48, 2′-acetamido-N,N-dimethyl-3,4′-bipyridine-5-carboxamide]
> 99% |  | CC(=O)Nc1cc(-c2cnc(N)c(S(=O)(=O)NCC3CC3)c2C)ccn1 [Compound I-49, N-{6-amino-5-[(cyclopropylmethyl)sulfamoyl]-4-methyl-3,4′-bipyridin-2′-yl}acetamide]
> 99% |  | CC(=O)Nc1cc(-c2cnc(N)c(S(=O)(=O)Cc3ccccc3C(F)(F)F)c2)ccn1 [Compound I-50, N-(6-amino-5-{[2-(trifluoromethyl)benzyl]sulfonyl}-3,4′-bipyridin-2′-yl)acetamide]

inhibition at 1.11 µM | IC50 (IC50 range class) | Compound
91% |  | CC(=O)Nc1cc(-c2cncc(S(C)(=O)=O)c2)ccn1 [Compound I-51, N-[5-(methylsulfonyl)-3,4′-bipyridin-2′-yl]acetamide]
> 99% |  | CC(=O)Nc1cc(-c2cnc(C)c(NS(=O)(=O)c3cc(F)ccc3F)c2)ccn1 [Compound I-52]
67% |  | CC(=O)Nc1cc(-c2cnc(NCC3CC3)c(N)c2)ccn1 [Compound I-53, N-{5-amino-6-[(cyclopropylmethyl)amino]-3,4′-bipyridin-2′-yl}acetamide]
83% |  | CC(=O)Nc1cc(-c2cnc3[nH]cc(CN4CCCC4)c3c2)ccn1 [Compound I-54, N-{4-[3-(pyrrolidin-1-ylmethyl)-1H-pyrrolo[2,3-b]pyridin-5-yl]pyridin-2-yl}acetamide]
> 99% |  | COC(=O)Nc1cc(-c2cnc(N)c(C(=O)N(C)C)c2)ccn1 [Compound I-55, methyl [6-amino-5-(dimethylcarbamoyl)-3,4′-bipyridin-2′-yl]carbamate]
> 99% |  | CC(=O)Nc1cc(-c2cnc(Cl)c(NS(=O)(=O)c3ccccc3)c2)c(C)cn1 [Compound I-56, N-{6-chloro-5′-methyl-5-[(phenylsulfonyl)amino]-3,4′-bipyridin-2′-yl}acetamide]
> 99% |  | CNC(=O)c1cc(-c2ccnc(NC(C)=O)c2)cnc1N [Compound I-57, 2′-acetamido-6-amino-N-methyl-3,4′-bipyridine-5-carboxamide]
> 99% |  | COc1cc(F)ccc1S(=O)(=O)Nc1cc(-c2ccnc(NC(C)=O)c2)cnc1C [Compound I-58, N-(5-{[(4-fluoro-2-methoxyphenyl)sulfonyl]amino}-6-methyl-3,4′-bipyridin-2′-yl)acetamide]
> 99% |  | CC(=O)Nc1cc(-c2cnc(C)c(NS(=O)(=O)c3ccc(F)c(F)c3)c2)ccn1 [Compound I-59, N-(5-{[(3,4-difluorophenyl)sulfonyl]amino}-6-methyl-3,4′-bipyridin-2′-yl)acetamide]
> 99% |  | CC(=O)Nc1cc(-c2cnc(N)c(C(=O)N3CCC(F)(F)C3)c2)ccn1 [Compound I-60, N-{6-amino-5-[(3,3-difluoropyrrolidin-1-yl)carbonyl]-3,4′-bipyridin-2′-yl}acetamide]
95% |  | CC(=O)Nc1cc(-c2cnc(N)c(S(N)(=O)=O)c2)ccn1 [Compound I-61, N-(6-amino-5-sulfamoyl-3,4′-bipyridin-2′-yl)acetamide]
> 99% |  | CC(=O)Nc1cc(-c2cnc(C)c(NS(=O)(=O)c3ccccc3C(F)(F)F)c2)ccn1 [Compound I-62, N-[6-methyl-5-({[2-(trifluoromethyl)phenyl]sulfonyl}amino)-3,4′-bipyridin-2′-yl]acetamide]
> 99% |  | CNc1ncc(-c2ccnc(NC(C)=O)c2)cc1S(=O)(=O)Nc1ccc(F)cc1F [Compound I-63, N-{5-[(2,4-difluorophenyl)sulfamoyl]-6-(methylamino)-3,4′-bipyridin-2′-yl}acetamide]
> 99% | < 10 nM | CC(=O)Nc1cc(-c2cnc(N)c(NS(=O)(=O)c3ccc(F)cc3F)c2)ccn1 [Compound I-64, N-(6-amino-5-{[(2,4-difluorophenyl)sulfonyl]amino}-3,4′-bipyridin-2′-yl)acetamide]
93% |  | CC(=O)Nc1cc(-c2cnc(NCC3CC3)c(NCC3CC3)c2)ccn1 [Compound I-65, N-{5,6-bis[(cyclopropylmethyl)amino]-3,4′-bipyridin-2′-yl}acetamide]
88% |  | CC(=O)Nc1cc(-c2cnc3[nH]c(C)nc3c2)ccn1 [Compound I-66, N-[4-(2-methyl-3H-imidazo[4,5-b]pyridin-6-yl)pyridin-2-yl]acetamide]
> 99% |  | CC(=O)Nc1cc(-c2cnc3c(c2)CCN3)ccn1 [Compound I-67, N-[4-(2,3-dihydro-1H-pyrrolo[2,3-b]pyridin-5-yl)pyridin-2-yl]acetamide]
98% |  | CC(=O)Nc1cc(-c2cnc3c(c2)NS(=O)(=O)N3CC2CC2)ccn1 [Compound I-68, N-{4-[3-(cyclopropylmethyl)-2,2-dioxido-1,3-dihydro[1,2,5]thiadiazole[3,4-b]pyridin-6-yl]pyridin-2-yl}acetamide]
> 99% |  | CCS(=O)(=O)c1cc(-c2ccnc(NC(C)=O)c2)cnc1N [Compound I-69, N-[6-amino-5-(ethylsulfonyl)-3,4′-bipyridin-2′-yl]acetamide]
> 99% |  | CC(=O)Nc1cc(-c2cnc(C)c(NS(=O)(=O)c3cccc(C(C)(C)C)c3)c2)ccn1 [Compound I-70, N-(5-{[(3-tert-butylphenyl)sulfonyl]amino}-6-methyl-3,4′-bipyridin-2′-yl)acetamide]
> 99% |  | CC(=O)Nc1cc(-c2cnc(N)c(C(=O)N3CCc4ccccc43)c2)ccn1 [Compound I-71, N-[6-amino-5-(2,3-dihydro-1H-indol-1-ylcarbonyl)-3,4′-bipyridin-2′-yl]acetamide]
